# Counter-ions that a name gives are not always drawn.
# Biological target: T1, recombinant full-length USP7 (Homo sapiens, UniProt Q93009)
# T1 construct: A 25 μl reaction volume containing recombinant full-length USP7 (62 pM)
# Test: USP7-mediated ubiquitin-rhodamine cleavage assay
# Assay type: biochemical
# Details: recombinant full-length USP7 62 pM; ubiquitin-rhodamine 100 nM; 30-minute incubation with compound, 1 hour reaction at room temperature; read-out: Potency: USP7 IC50
# How it was run: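 USP7 (62 pM) in 20 mM HEPES pH 7.3, 150 mM NaCl, 1 mM TCEP, 125 μg/ml BSA was preincubated with compound (1% DMSO) for 30 min at room temperature. Ubiquitin-rhodamine (100 nM final) was then added for 1 hour, the reaction stopped with acetic acid, and fluorescence read; IC50 from 4-parameter fit.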
# T1 sequence (Q93009 whole entry): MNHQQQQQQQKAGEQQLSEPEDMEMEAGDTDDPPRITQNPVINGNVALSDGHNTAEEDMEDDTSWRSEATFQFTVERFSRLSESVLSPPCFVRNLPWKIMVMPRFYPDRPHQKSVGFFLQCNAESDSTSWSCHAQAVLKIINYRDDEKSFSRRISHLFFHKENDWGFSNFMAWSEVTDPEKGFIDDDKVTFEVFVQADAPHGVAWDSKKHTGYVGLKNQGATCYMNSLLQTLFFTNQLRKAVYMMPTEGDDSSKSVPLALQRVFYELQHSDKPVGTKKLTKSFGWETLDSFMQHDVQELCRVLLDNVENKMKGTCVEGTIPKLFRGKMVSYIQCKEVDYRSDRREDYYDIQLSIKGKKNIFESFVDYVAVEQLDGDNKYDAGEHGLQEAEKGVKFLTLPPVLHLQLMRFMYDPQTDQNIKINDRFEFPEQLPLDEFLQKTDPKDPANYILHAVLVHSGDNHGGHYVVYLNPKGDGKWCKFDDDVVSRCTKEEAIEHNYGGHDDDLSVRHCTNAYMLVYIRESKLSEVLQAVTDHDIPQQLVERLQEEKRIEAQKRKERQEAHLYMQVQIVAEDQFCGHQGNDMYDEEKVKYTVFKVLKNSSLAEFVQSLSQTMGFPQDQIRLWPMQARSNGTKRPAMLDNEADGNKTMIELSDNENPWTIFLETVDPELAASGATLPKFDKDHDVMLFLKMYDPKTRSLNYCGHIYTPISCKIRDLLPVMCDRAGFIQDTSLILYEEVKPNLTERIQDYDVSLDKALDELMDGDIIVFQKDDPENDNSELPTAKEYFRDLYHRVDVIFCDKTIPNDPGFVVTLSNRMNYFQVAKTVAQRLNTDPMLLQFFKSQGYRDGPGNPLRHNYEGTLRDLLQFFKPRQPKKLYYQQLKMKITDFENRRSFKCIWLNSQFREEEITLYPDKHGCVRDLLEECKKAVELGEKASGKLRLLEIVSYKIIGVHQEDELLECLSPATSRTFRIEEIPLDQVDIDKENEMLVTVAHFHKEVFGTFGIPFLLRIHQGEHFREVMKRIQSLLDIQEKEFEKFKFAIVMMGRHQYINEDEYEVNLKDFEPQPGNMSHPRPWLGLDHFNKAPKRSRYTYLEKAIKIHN
row,Compound,IC50 [nM]
1,"Cc1cc(Cl)cc(-c2ccnc3cc(CN4C(=O)C5C(C4=O)C5(C)C)sc23)c1O[C@@H]1CCNC[C@H]1F (stereo partly drawn) [Example 294, 3-[[7-[5-chloro-2-[[(3R,4R)-3-fluoro-4-piperidyl]oxy]-3-methyl-phenyl]thieno[3,2-b]pyridin-2-yl]methyl]-6,6-dimethyl-3-azabicyclo[3.1.0]hexane-2,4-dione; 2,2,2-trifluoroacetic acid]",< 1000
2,"Cc1cc(Cl)cc(-c2ccnc3cc(CN4C(=O)CCC4=O)sc23)c1O[C@@H]1CNC[C@@H]1CF [Example 108, 1-((7-(5-Chloro-2-(((3S,4S)-4-(fluoromethyl)pyrrolidin-3-yl)oxy)-3-methylphenyl)thieno[3,2-b]pyridin-2-yl)methyl)pyrrolidine-2,5-dione]",< 1000
3,"CCN1C[C@H]2C[C@@H]1[C@H](Oc1c(C)cc(Cl)cc1-c1ccnc3cc(CN4C(=O)C5C(C4=O)C5(C)C)sc13)C2 (stereo partly drawn) [Example 332, 3-[[7-[5-chloro-2-[[(1S,4R,5R)-3-ethyl-3-azabicyclo[2.2.1]heptan-5-yl]oxy]-3-methyl-phenyl]thieno[3,2-b]pyridin-2-yl]methyl]-6,6-dimethyl-3-azabicyclo[3.1.0]hexane-2,4-dione]",< 1000
4,"Cc1cc(Cl)cc(-c2ccnc3cc(CN4C(=O)OC(C)(C)C4=O)sc23)c1O[C@H]1CCCNC1 [Example 311, 3-[[7-[5-chloro-3-methyl-2-[[(3S)-3-piperidyl]oxy]phenyl]thieno[3,2-b]pyridin-2-yl]methyl]-5,5-dimethyl-oxazolidine-2,4-dione; 2,2,2-trifluoroacetic acid]",< 1000
5,"Cc1cc(Cl)cc(-c2ccnc3cc(CN4C(=O)CCC4=O)sc23)c1OC1CCN(CC(F)(F)F)CC1 [Example 194, 1-((7-(5-Chloro-3-methyl-2-((1-(2,2,2-trifluoroethyl)piperidin-4-yl)oxy)phenyl)thieno[3,2-b]pyridin-2-yl)methyl)pyrrolidine-2,5-dione]",1000 to 10000
6,"Cc1cc(C(F)(F)F)cc(-c2ccnc3cc(Cn4c(=O)ccn(C)c4=O)sc23)c1O[C@@H]1CNC[C@@H]1F [Example 132, 3-((7-(2-(((3R,4S)-4-Fluoropyrrolidin-3-yl)oxy)-3-methyl-5-(trifluoromethyl)phenyl)thieno[3,2-b]pyridin-2-yl)methyl)-1-methylpyrimidine-2,4(1H,3H)-dione]",< 1000

# Further lines, results first:
row,IC50 [nM],Compound
1,< 1000,"Cc1cc(Cl)cc(-c2ccnc3cc(Cn4c(=O)ccn(CC(F)(F)F)c4=O)sc23)c1O[C@@H]1CCNC[C@@]1(C)F [Example 276, 3-((7-(5-Chloro-2-(((3R,4R)-3-fluoro-3-methylpiperidin-4-yl)oxy)-3-methylphenyl)thieno[3,2-b]pyridin-2-yl)methyl)-1-(2,2,2-trifluoroethyl)pyrimidine-2,4(1H,3H)-dione]"
2,< 1000,"Cc1cc(Cl)cc(-c2ccnc3cc(Cn4c(=O)ccn(CC(F)(F)F)c4=O)sc23)c1OC1CCNC1(C)C (stereo not shown) [Example 344, 3-[[7-[5-chloro-2-(2,2-dimethylpyrrolidin-3-yl)oxy-3-methyl-phenyl]thieno[3,2-b]pyridin-2-yl]methyl]-1-(2,2,2-trifluoroethyl)pyrimidine-2,4-dione]"

# Same assay, conditions: recombinant full-length USP7 62 pM; ubiquitin-rhodamine 100 nM; 30-minute pre-incubation, 1 hour reaction at room temperature; read-out: Potency (USP7 IC50)
row,Compound,IC50 [nM]
1,"Cc1cc(Cl)cc(-c2ccnc3cc(Cn4c(=O)ccn(C)c4=O)sc23)c1OC1CC2CC1N(CCO)C2 (stereo not shown) [Example 461, 3-[[7-[5-chloro-2-[[3-(2-hydroxyethyl)-3-azabicyclo[2.2.1]heptan-5-yl]oxy]-3-methyl-phenyl]thieno[3,2-b]pyridin-2-yl]methyl]-1-methyl-pyrimidine-2,4-dione]",< 1000
2,"Cc1cc(Cl)cc(-c2ccnc3cc(Cn4c(=O)c(C(F)(F)F)cn(C)c4=O)sc23)c1O[C@H]1CCCNC1 [Example 581, 3-[[7-[5-chloro-3-methyl-2-[[(3S)-3-piperidyl]oxy]phenyl]thieno[3,2-b]pyridin-2-yl]methyl]-1-methyl-5-(trifluoromethyl)pyrimidine-2,4-dione; 2,2,2-trifluoroacetic acid]",< 1000
3,"Cc1cc(Cl)cc(-c2ccnc3cc(Cn4c(=O)ccn(C)c4=O)sc23)c1O[C@@H]1CNCC(C)(C)C1 [Example 536, 3-[[7-[5-chloro-2-[[(3S)-5-dimethyl-3-piperidyl]oxy]-3-methyl-phenyl]thieno[3,2-b]pyridin-2-yl]methyl]-1-methyl-pyrimidine-2,4-dione; 2,2,2-trifluoroacetic acid]",< 1000
4,"Cc1cc(Cl)cc(-c2ccnc3cc(Cn4c(=O)c(F)cn(C)c4=O)sc23)c1O[C@H]1CCCNC1 [Example 422, 3-[[7-[5-chloro-3-methyl-2-[[(3S)-3-piperidyl]oxy]phenyl]thieno[3,2-b]pyridin-2-yl]methyl]-5-fluoro-1-methyl-pyrimidine-2,4-dione]",< 1000
5,"Cc1cc(Cl)cc(-c2ccnc3cc(Cn4c(=O)ccn(C)c4=O)sc23)c1OC1CCNC(C)(C)C1 (stereo not shown) [Example 572, 3-[[7-[5-chloro-2-[(2,2-dimethyl-4-piperidyl)oxy]-3-methyl-phenyl]thieno[3,2-b]pyridin-2-yl]methyl]-1-methyl-pyrimidine-2,4-dione; 2,2,2-trifluoroacetic acid]",< 1000
6,"Cc1cc(Cl)cc(-c2ccnc3cc(CN4C(=O)C5C(C4=O)C5(C)C)sc23)c1O[C@H]1CCCNC1 (stereo partly drawn) [Example 436, 3-[[7-[5-chloro-3-methyl-2-[[(3S)-3-piperidyl]oxy]phenyl]thieno[3,2-b]pyridin-2-yl]methyl]-6,6-dimethyl-3-azabicyclo[3.1.0]hexane-2,4-dione dihydrochloride]",< 1000
7,"Cc1cc(Cl)cc(-c2ccnc3cc(Cn4c(=O)ccn(C)c4=O)sc23)c1OC1CC[C@H](C)NC1 (stereo partly drawn) [Example 523, 3-[[7-[5-chloro-3-methyl-2-[[(6S)-6-methyl-3-piperidyl]oxy]phenyl]thieno[3,2-b]pyridin-2-yl]methyl]-1-methyl-pyrimidine-2,4-dione; 2,2,2-trifluoroacetic acid]",< 1000

# More lines, now with the values ahead:
row,IC50 [nM],Compound
1,< 1000,"Cc1cc(Cl)cc(-c2ccnc3cc(Cn4c(=O)ccn(CC(F)(F)F)c4=O)sc23)c1O[C@H]1CCCN(C(=O)C(F)(F)F)C1 [Example 659, 3-[[7-[5-chloro-3-methyl-2-[[(3S)-1-(2,2,-trifluoroacetyl)-3-piperidyl]oxy]phenyl]thieno[3,2-b]pyridin-2-yl]methyl]-1-(2,2,2-trifluoroethyl)pyrimidine-2,4-dione]"
2,< 1000,"Cc1cc(Cl)cc(-c2ncnc3cc(Cn4c(=O)ccn(CC(F)(F)F)c4=O)sc23)c1OC1CNC1 [Example 587, 3-[[4-[2-(azetidin-3-yloxy)-5-chloro-3-methyl-phenyl]thieno[3,2-d]pyrimidin-6-yl]methyl]-1-(2,2,2-trifluoroethyl)pyrimidine-2,4-dione]"
3,< 1000,"Cc1cc(Cl)cc(-c2ncnc3cc(Cn4c(=O)ccn(CC(F)(F)F)c4=O)sc23)c1O[C@H]1CCNC[C@H]1C [Example 585, 3-[[4-[5-chloro-3-methyl-2-[[(3R,4S)-3-methyl-4-piperidyl]oxy]phenyl]thieno[3,2-d]pyrimidin-6-yl]methyl]-1-(2,2,2-trifluoroethyl)pyrimidine-2,4-dione]"
4,< 1000,"Cc1cc(Cl)cc(-c2ccnc3cc(Cn4c(=O)ccn(CC(F)(F)F)c4=O)sc23)c1OC1CCNCC12CC2 (stereo not shown) [Example 617, 3-[[7-[2-(5-azaspiro[2.5]octan-8-yloxy)-5-chloro-3-methyl-phenyl]thieno[3,2-b]pyridin-2-yl]methyl]-1-(2,2,2-trifluoroethyl)pyrimidine-2,4-dione; 2,2,2-trifluoroacetic acid]"
